Reference: publication PMC7367283, “A PIP2 substitute mediates voltage sensor-pore coupling in KCNQ activation” (Communications Biology, 2020)
“And” between values parts separate entries of the source, which are not always exact repeats. Equal values may be shown once.

Target: KCNQ1 (Homo sapiens, UniProt P51787)
Assay: Two-electrode voltage clamp of WT KCNQ1 expressed in Xenopus oocytes
Format: cell-based
Settings: for Current: Fig. 3b; for G/Gmax Mean: Fig. 3c; for ΔV1/2 of activation induced by CP1: Fig. 3e dose response; for Time constants of deactivation: Fig. 3d, individual values
Description: Complementary DNA (cDNA) encoding human KCNQ1 (UniProtKB/Swiss-Prot under accession no. P51787), KCNQ2 (O43526), KCNQ3 (O43525), KCNE1 (P15382), Kir1.1 (P48048), hERG (Q12809), KV4.2 (Q63881), NaV1.5 (Q14524), NaV β1 (Q07699), CaV1.2 (Q13936), CaV β1a (Q02641), CaV α2/δ1 (P54289), and HCN4 (Q9Y3Q4) were subcloned into oocyte expression vectors, respectively. Site-directed mutations of the KCNQ1 channel were all produced by overlap extension polymerase chain reaction (PCR) with high-fidelity Pfu polymerase (Stratagene, CA). The presence of the desired mutation was verified by sequencing the PCR-amplified regions. All the primer sequences used in this study are available in Supplementary Table 1. The complementary RNA (cRNA) of all these channels and mutations was transcribed in vitro with the T3, T7, or SP6 polymerase mMessage mMachine kit (Invitrogen, Thermo Fisher Scientific, MO). The use of Xenopus laevis to obtain oocytes was approved by the Washington University Animal Studies Committee (protocol #20190030). Oocytes were manually dispersed and digested with collagenase (0.5 mg/ml, Sigma-Aldrich, Saint Louis, MO) to remove the follicle cell layer. Stage V or VI oocytes were selected and injected with cRNAs (9.2 ng) of channel or mutations. Especially, to characterize IKs, a mix of cRNAs at a molar ratio 4:1 (KCNQ1:KCNE1) was injected. For KCNQ2/KCNQ3, the molar ratio was 1:1 (KCNQ2:KCNQ3). For sodium channels, a 3:1 molar ratio (β1:NaV1.5) and for calcium channels a weight ratio 1:1:1 (β1:α2/δ1:CaV1.2) was injected, respectively. Injected oocytes were incubated in ND96 solution containing (in mM) 96 NaCl, 2 KCl, 1.8 CaCl2, 1 MgCl2, and 5 HEPES, pH 7.6, supplemented with 2.5 mM Na pyruvate and 1% penicillin-streptomycin, at 18 °C for 3-7 days before recording. All electrophysiological recordings on oocytes and isolated ventricular cells were performed at room temperature (20-23 °C). The whole-oocyte ionic currents were recorded with a GeneClamp 500B amplifier (Axon Instruments, CA) or iTEV90 amplifier (HEKA, Germany) and then sampled at 1 kHz and low-pass-filtered at 2 kHz. The Patchmaster software (HEKA, Germany) was used to acquire data. The Kir1.1 current was recorded with a high K^+ bath solution containing (in mM) 96 KCl, 4 NaCl, 1 CaCl2, 2 MgCl2, and 10 HEPES, pH 7.3-7.4. The HCN4 current was recorded in ND66 solution containing (in mM) 66 NaCl, 32 KCl, 1.8 CaCl2, 1 MgCl2, and 5 HEPES, pH 7.6. All the other potassium channels were recorded in ND96 solution. The currents of CaV1.2 channel were recorded in 40 mM Ba^2+ bath solution containing (in mM) 40 Ba(OH)2, 50 TEA-OH, 2 KOH, and 5 HEPES, adjusted to pH 7.4 with methanesulfonic acid. […] All the chemicals were purchased from Sigma-Aldrich. To measure the I-V relations of the Kir1.1 channel, the test voltage was set from -100 to +60 mV for 1 s with 20-mV increments. […] The HCN4 currents were recorded by a test pulse between -30 and -140 mV in 10-mV step from a holding potential of -30 mV. For all the other potassium channels and CaV1.2 channel, the holding potential was -80 or -100 mV, and the test pulse was applied with 10-mV increment, which was followed with a repolarization pulse at -40 mV before returning to the holding potential. The durations of test and the repolarization pulse vary for different channels to allow the activation and deactivation of the channel to reach their steady states. Electrophysiology data were processed with IGOR (Wavemetrics, Lake Oswego, OR), Clampfit (Molecular Devices, Sunnyvale, CA), and SigmaPlot (SPSS, Inc., San Jose, CA). Normalized tail currents were plotted versus prepulse voltage and fitted with the Boltzmann function G = G0 + 1/(1 + exp(V - V1/2)/S), where G0 is the minimum conductance, V1/2 is the half-maximal voltage of activation, and S is the slope factor. […]

O=S(=O)([O-])Oc1c(-c2sc3c(ccc4cccc(Cl)c43)c2OS(=O)(=O)[O-])[nH]c2ccc(Br)cc12.[Na+].[Na+] [CP1, DISODIUM 5-BROMO-2-[9-CHLORO-3-(SULFONATOOXY) NAPHTHO [1,2-B] THIEN-2-YL]-1H-INDOL-3-YL SULFATE]
outward current (Icp1/Ictrl) (10 µM CP1, Q1, at −10 mV, individual oocytes): 0.8052 and 0.8187 and 0.929 and 0.8224 and 0.7283
∆V1/2 (10 µM CP1, Q1, individual oocytes (Fig. 5c)): 44.3815 mV and 57.8695 mV and 53.8703 mV and 54.2596 mV and 54.8585 mV
∆V1/2 (10 µM CP1, WT, individual oocytes): 47.2416 mV and 59.5412 mV and 44.3815 mV and 57.8695 mV and 53.8703 mV and 54.2596 mV and 54.8585 mV and 51.8892 mV and 58.8475 mV and 52.7212 mV and 56.3253 mV
τ deact at -120 mV (10 µM CP1 treated, Q1, individual oocytes): 1.3301 s and 1.9909 s and 0.8395 s and 0.9034 s and 1.9351 s and 1.4782 s and 1.0081 s
Current (10 µM CP1, 0 mV): 3.7050 µA
Current (10 µM CP1, 10 mV): 4.0550 µA
Current (10 µM CP1, 20 mV): 4.3975 µA
Current (10 µM CP1, 30 mV): 4.6856 µA
Current (10 µM CP1, 40 mV): 4.8369 µA
Current (10 µM CP1, -10 mV): 3.2725 µA
Current (10 µM CP1, -20 mV): 2.9419 µA
Current (10 µM CP1, -30 mV): 2.4731 µA
Current (10 µM CP1, -40 mV): 1.9956 µA
Current (10 µM CP1, -50 mV): 1.5250 µA
Current (10 µM CP1, -60 mV): 1.0387 µA
Current (10 µM CP1, -70 mV): 0.5337 µA
Current (10 µM CP1, -80 mV): 0.1319 µA
Current (10 µM CP1, -90 mV): -0.1563 µA
Current (10 µM CP1, -100 mV): -0.3112 µA
Current (10 µM CP1, -110 mV): -0.3831 µA
Current (10 µM CP1, -120 mV): -0.4494 µA
G/Gmax Mean (10 µM CP1, 0 mV): 0.9915
G/Gmax Mean (10 µM CP1, 10 mV): 0.9924
G/Gmax Mean (10 µM CP1, -10 mV): 1.0000
G/Gmax Mean (10 µM CP1, -20 mV): 0.9950
G/Gmax Mean (10 µM CP1, -30 mV): 0.9789
G/Gmax Mean (10 µM CP1, -40 mV): 0.9526
G/Gmax Mean (10 µM CP1, -50 mV): 0.9082
G/Gmax Mean (10 µM CP1, -60 mV): 0.8392
G/Gmax Mean (10 µM CP1, -70 mV): 0.7434
G/Gmax Mean (10 µM CP1, -80 mV): 0.6159
G/Gmax Mean (10 µM CP1, -90 mV): 0.4868
G/Gmax Mean (10 µM CP1, -100 mV): 0.3712
G/Gmax Mean (10 µM CP1, -110 mV): 0.2836
G/Gmax Mean (10 µM CP1, -120 mV): 0.2306
ΔV1/2 of activation induced by CP1 (1 µM CP1, individual values): 10.5419 and 2.1756 and 5.0919
ΔV1/2 of activation induced by CP1 (2 µM CP1, individual values): 12.1917 and 9.8070 and 18.4095 and 22.1605 and 21.9879 and 9.1767 and 12.7137
ΔV1/2 of activation induced by CP1 (5 µM CP1, individual values): 24.5897 and 25.8044 and 18.4530 and 34.4519 and 16.0115 and 11.0322
ΔV1/2 of activation induced by CP1 (10 µM CP1, individual values): 47.2416 and 73.6056 and 59.5412 and 44.3815 and 57.8695 and 53.8703 and 54.2596 and 54.8585 and 51.8892 and 58.8475 and 52.7212 and 56.3253
ΔV1/2 of activation induced by CP1 (25 µM CP1, individual values): 80.4973 and 70.5486 and 58.5444
ΔV1/2 of activation induced by CP1 (50 µM CP1, individual values): 90.4999 and 79.3797 and 90.4855
Time constants of deactivation (10 µM CP1, -90 mV): 3656.5 ms and 3430.6 ms and 3945.9 ms and 3244.2 ms
Time constants of deactivation (10 µM CP1, -100 mV): 3169.0 ms and 2901.8 ms and 2335.0 ms and 2809.3 ms and 2214.2 ms
Time constants of deactivation (10 µM CP1, -110 mV): 1447.9 ms and 2103.3 ms and 1665.7 ms and 1887.0 ms and 1619.5 ms
Time constants of deactivation (10 µM CP1, -120 mV): 823.6 ms and 1460.2 ms and 1255.8 ms and 1290.8 ms and 1343.2 ms
EC50 (KCNQ1 expressed alone in oocytes, Hill fit, read-out: EC50 of G–V shift (ΔV1/2 of activation) versus CP1 concentration): 8.73 ± 0.68 µM
ion selectivity of KCNQ1 channels (Supplementary Fig. 2): does not alter the ion selectivity
G/Gmax (WT, 10 µM CP1, -20 mV): 1.0000
G/Gmax (WT, 10 µM CP1, -30 mV): 0.9911
G/Gmax (WT, 10 µM CP1, -40 mV): 0.9627
G/Gmax (WT, 10 µM CP1, -50 mV): 0.9093
G/Gmax (WT, 10 µM CP1, -60 mV): 0.8189
G/Gmax (WT, 10 µM CP1, -70 mV): 0.6709
G/Gmax (WT, 10 µM CP1, -80 mV): 0.4831
G/Gmax (WT, 10 µM CP1, -90 mV): 0.2996
G/Gmax (WT, 10 µM CP1, -100 mV): 0.1522
G/Gmax (WT, 10 µM CP1, -110 mV): 0.0549
G/Gmax (WT, 10 µM CP1, -120 mV): 0.0000
